Laboratory results: patent EP1566447A1, “Glimepiride- and insulin-induced glycosylphosphatidylinositol-specific phospholipase C regulation” (priority 2004, dated 2005)

What was measured:
cabbage PLD = experiment: selectivity: PLD assay; type: biochemical; conditions: 50 µM
Procedure: (§1) Hormone-sensitive lipase (HSL) and lipoprotein lipase (LPL) were measured using a radiolabeled triolein droplet emulsion as described in "Vertesy et al., (2002) Journal Antibiotics 55:480-494". Pancreatic lipase (PL) was determined by incubation of 0.25 mmol tributyrin in 2 ml of 5 mM Tris/HCl (pH 6.5), 6 mM sodium taurodeoxycholate, 150 mM NaCl, 1 mM CaCl2 with porcine PL and colipase in the same buffer using a recording pH stat (stirring at 1000 rpm at 25°C) with the pH adjusted to 6.5. PC-PLC was assayed by incubation of 0.2 ml of 10 mM dipalmitoyllecithin, 0.1 ml of 10 mM SDC and 0.1 ml of 0.03 M CaCl2 with bacterial PC-PLC (in 50 mM Tris/HCl, pH 7.5, 0.1 % BSA) for 10 min at 37°C. The reaction was terminated by addition of 0.1 ml of 50 % TCA and subsequently of 2.5 ml of […]. After centrifugation (1500xg, 15 min), 0.2-ml portions of the upper methanol/water phase (~ 1.33 ml) was removed, supplemented with 0.5 ml of 60 % HClO4, then heated at 170°C for 1 h and finally analyzed for inorganic phosphate. Mammalian PI-PLC was measured by incubation of 0.1 ml of 10 mM PI, 0.1 ml of 0.8 % sodium deoxycholate, 0.1 % BSA, 0.2 ml of 100 mM sodium borate (pH 7.5) and rat liver PI-PLC for 20 min at 37°C. The reaction was terminated and further processed as described for the PC-PLC. […] Radioactive phosphatidic acid was detected by phosphorimaging. […]

IRS-1 and pp59^Lyn = experiment: tyrosine phosphorylation of pp59^Lyn and IRS-1; type: cell-based, rat
Procedure: Polypeptides separated by SDS-PAGE were transferred to polyvinylidene difluoride membranes using the semidry procedure as described in "Müller, G. et al., (2001) Mol. Cell. Biol. 21: 4553-4567". Washed membranes were incubated anti-caveolin-1 (1:2000), anti-pp59^Lyn (1:1250), anti-aP (1:500), anti-5'-Nuc (1:750) and anti-IRS-1 (1:2000) antibodies for 4 h at 15°C. Washed membranes were incubated with horseradish peroxidase-coupled secondary goat anti-mouse (1:2000) or goat anti-rabbit IgG (1:4000) antibodies. Labeled proteins were visualized by enhanced chemiluminescence.
Fig. 7: Effect of GPI-2350 on the glimepiride/insulin-induced activation of signaling proteins. Isolated rat adipocytes were treated (5 min, 37°C) without or with GPI-2350 (Panels A, 50 µM; Panels B, increasing conc.) and then incubated (120 min, 37°C) in the absence or presence of insulin (10 nM) or glimepiride (20 µM). IRS-1 and pp59^Lyn were immunoprecipitated from the defatted postnuclear infranatant (see Materials and Methods) and solubilized combined hc/IcDIGs, respectively, and then immunoblotted for phosphotyrosine. […]

bacterial PC-PLC = molecular target: T1, bacterial PC-PLC (Bacillus cereus, UniProt P09598); experiment: selectivity: PC-PLC assay; type: biochemical; conditions: 50 µM
T1 construct: purchased Sigma/Aldrich (Deisenhofen, Germany)

Pancreatic lipase (PL) = molecular target: T2, Pancreatic lipase (PL) (Sus scrofa, UniProt P00591); experiment: selectivity: pancreatic lipase assay; type: biochemical, porcine; conditions: 50 µM
T2 construct: crude porcine pancreatic lipase (PL); purchased Sigma/Aldrich (Deisenhofen, Germany); host or cells: porcine pancreas (crude preparation)
T2 sequence (P00591 1-450): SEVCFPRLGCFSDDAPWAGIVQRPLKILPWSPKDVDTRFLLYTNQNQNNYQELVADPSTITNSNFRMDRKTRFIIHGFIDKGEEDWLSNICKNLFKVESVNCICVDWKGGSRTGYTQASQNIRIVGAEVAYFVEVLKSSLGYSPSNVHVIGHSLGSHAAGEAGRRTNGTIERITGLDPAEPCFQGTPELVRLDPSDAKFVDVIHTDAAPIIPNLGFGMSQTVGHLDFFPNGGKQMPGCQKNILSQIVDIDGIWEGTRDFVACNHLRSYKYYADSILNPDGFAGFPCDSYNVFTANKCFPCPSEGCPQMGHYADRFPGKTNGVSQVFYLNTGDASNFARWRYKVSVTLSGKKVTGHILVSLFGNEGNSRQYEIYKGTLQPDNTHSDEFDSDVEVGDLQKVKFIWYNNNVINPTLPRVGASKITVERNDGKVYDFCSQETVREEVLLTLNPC
T2 sequence (P02703 23-112 partner): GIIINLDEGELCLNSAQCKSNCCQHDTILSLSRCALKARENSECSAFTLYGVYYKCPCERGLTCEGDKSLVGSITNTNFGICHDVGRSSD
Procedure: as §1

T1 sequence (P09598 39-283 limits assumed): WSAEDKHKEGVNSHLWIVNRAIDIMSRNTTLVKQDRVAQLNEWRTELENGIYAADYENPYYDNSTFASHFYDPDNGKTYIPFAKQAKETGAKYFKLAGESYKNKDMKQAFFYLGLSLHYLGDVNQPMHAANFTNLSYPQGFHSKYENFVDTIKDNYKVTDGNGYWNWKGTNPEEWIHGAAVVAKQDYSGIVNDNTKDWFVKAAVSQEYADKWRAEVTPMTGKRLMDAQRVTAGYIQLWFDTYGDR

## CCCCCCCCCCCCP1(=O)O[C@@H]2[C@H](O)[C@@H](O)[C@H](O)[C@@H](O)[C@@H]2O1 (mixture of isomers) [GPI-2350, myo-inositol-1,2-cyclo-dodecylphosphonic acid]
Cabbage PLD
  effect on phospholipase activity: not significantly affected
IRS-1 and pp59^Lyn; 50 µM
  effect on tyrosine phosphorylation of pp59^Lyn and IRS-1 in response to glimepiride: almost complete blockade
IRS-1 and pp59^Lyn; insulin-stimulated
  effect on metabolic insulin signaling (tyrosine phosphorylation of IRS-1 and inhibition of lipolysis): only marginally reduced
Bacterial PC-PLC
  effect on phospholipase activity: not significantly affected
Pancreatic lipase (PL)
  effect on lipase activity: not significantly affected
